Activity calls are given as the source filed them.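 Rule for the calls: active = compounds giving half or more protection of infected cells from virus-caused growth loss, again on retest; inactive = the rest.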
Test system: CEM cells HIV-1 protection, formazan growth assay
Assay: NCI AIDS Antiviral Assay
Conditions: for IC50: measured here: growth of uninfected CEM cells
Experimental: The ability of compounds to protect human CEM cells from HIV-1 infection is measured as a screen for new compounds capable of inhibiting the HIV virus. Five concentrations of drug were tested on uninfected and infected cells and cell growth was measured using a soluble formazan assay. […] Compounds that provided at least 50% protection were retested. Compounds that provided at least 50% protection on retest were listed as moderately active. Compounds that reproducibly provided 100% protection were listed as confirmed active. […] Note that the inability to provide protection could be due to toxicity.

SMILES: O=C(Nc1ccn(C2CC(O)C(COC(c3ccccc3)(c3ccccc3)c3ccccc3)O2)c(=O)n1)c1ccccc1 (stereo not drawn)
- EC50: > 200 µM
- IC50: 7.41 µM

SMILES: C=C1c2cc3c(cc2CC12Cc1cc4c(cc1C2=O)CCC4)CCC3 (stereo not drawn)
- EC50: > 200 µM
- IC50: > 200 µM

SMILES: CC(C(=O)O)c1ccc(-n2nnc3c(=O)[nH][nH]c(=O)c32)cc1 (stereo not drawn)
- EC50: > 200 µM
- IC50: > 200 µM

SMILES: O=[N+]([O-])c1ccc(NC(=S)Nc2ccccn2)cc1
- EC50: > 200 µM
- IC50: 19.1 µM

SMILES: CCN(CC)CCCNc1ccc([N+](=O)[O-])c2nc3ccc(OC)cc3c(NCCCN(CC)CC)c12
- EC50: > 50.1 µM
- IC50: 0.234 µM

SMILES: CC(=O)Oc1ccn2nc(C)c(Br)c2c1
- EC50: > 200 µM
- IC50: 93.3 µM

SMILES: CCN(CC)c1c(C)nnc2c(-c3ccccc3)cnn12
- EC50: > 18.6 µM
- IC50: > 18.6 µM

SMILES: NC1=NS(=O)(=O)Nc2nc(-c3ccc(Cl)cc3)[nH]c21
- EC50: > 200 µM
- IC50: > 200 µM

SMILES: CN=S(=O)(c1ccccc1)c1ccccc1
- EC50: 56.2 µM
- IC50: > 200 µM

SMILES: O=C1CCCCC1=O
- outcome: inactive

SMILES: CC1=NN(c2ccccc2)C(=O)C1=C1SCCCS1
- EC50: > 46.8 µM
- IC50: > 46.8 µM

SMILES: Nc1nc2ccccc2n1CC(=O)NC12CC3CC(CC(C3)C1)C2
- EC50: > 79.4 µM
- IC50: 36.3 µM

SMILES: COc1ccc(-c2c(C)c(C)nc(Cl)c2C#N)c(OCc2ccccc2)c1OC
- outcome: inactive

SMILES: COC(=O)N1CC2C3C4CC(C(c5ccccc5)=C4c4ccccc4)C3C21 (stereo not drawn)
- EC50: > 200 µM
- IC50: 29.5 µM

SMILES: COC(=O)/C(=C\C(=O)c1ccc(Br)cc1)NN=C(c1ccccc1)c1ccccc1
- EC50: > 200 µM
- IC50: > 200 µM

SMILES: O=C(Cc1ccc(OCc2cccc(Cl)c2)cc1)NO
- EC50: > 200 µM
- IC50: 29.5 µM

SMILES: CCOC(=O)c1nc(SC)sc1NC(=O)c1ccc([N+](=O)[O-])cc1
- EC50: > 200 µM
- IC50: > 200 µM

SMILES: OCC(Cn1cncn1)(c1ccc(F)cc1F)n1cncn1 (stereo not drawn)
- EC50: > 200 µM
- IC50: > 200 µM

SMILES: COCC(C)(C)N=CN1CCc2ccccc2C1
- EC50: > 1000 µM
- IC50: > 1000 µM

SMILES: CN/N=C(\C)C(CN(C)C)C(c1ccccc1)c1c(O)c2ccccc2oc1=O (stereo not drawn)
- EC50: > 135 µM
- IC50: 102 µM

SMILES: CCCCC1(C(=O)OCC)OC12CCCCC2 (stereo not drawn)
- EC50: > 200 µM
- IC50: > 200 µM

SMILES: Cc1cccc(-n2c(=S)[nH]c3c(sc(=O)n3-c3ccccc3C)c2=O)c1
- EC50: > 2 µM
- IC50: > 2 µM

SMILES: O=[N+]([O-])c1ccc(OCc2nc3ccccc3[nH]2)cc1
- EC50: > 200 µM
- IC50: 87.1 µM

SMILES: CCCSP(SCCC)SCCC
- outcome: inactive

SMILES: Nc1nc2c(ncn2C2C=CC(O)CC2)c(=O)[nH]1 (stereo not drawn)
- EC50: > 55 µM
- IC50: > 55 µM

SMILES: O=C1Oc2ccccc2C(=O)/C1=C/N1C(=O)N/C(=C\c2ccccc2Br)C1=O
- EC50: > 200 µM
- IC50: 83.2 µM

SMILES: CCSc1c2ccccc2c(-c2nc(F)nc(F)n2)n1CCc1ccccc1
- EC50: > 13.2 µM
- IC50: > 13.2 µM

SMILES: c1ccc2c(c1)[nH]c1c2nc2ccccn21
- EC50: > 1020 µM
- outcome: inactive
- IC50: > 1020 µM

SMILES: CN(C)[C@@H]1C(=O)C(C(N)=O)=C(O)[C@@]2(O)C(=O)C3=C(O)c4c(O)cccc4C[C@H]3C[C@@H]12
- EC50: > 200 µM
- IC50: 3.55 µM

SMILES: COc1cc(OC)cc(N(C)Cc2cnc3nc(N)nc(N)c3c2C)c1
- EC50: > 200 µM
- IC50: 0.138 µM

SMILES: NC1c2ccccc2Nc2ccccc21
- EC50: > 182 µM
- IC50: 1.29 µM

SMILES: Cc1cc(Br)cc(C)c1NC(=O)C(=O)CC(=O)c1sc(-n2nc(-c3ccccc3)cc2-c2ccccc2)nc1C
- outcome: inactive

SMILES: COC(=O)/C([O-])=C(\C(=O)OC)[n+]1cc(Br)cc2ccccc21
- EC50: > 200 µM
- IC50: 77.6 µM

SMILES: Cc1ccccc1C1OC1C(=O)c1ccccc1N (stereo not drawn)
- EC50: > 200 µM
- IC50: 46.8 µM

SMILES: O=S(O)CCCCCSSSCCCCCS(=O)O
- outcome: inactive

SMILES: CC(=O)O[C@@H]1[C@H]2O[C@H]2[C@H]2O[C@@]2(COC(=O)c2ccccc2)[C@H]1OC(C)=O
- EC50: > 200 µM
- IC50: 91.2 µM

SMILES: NC(=O)C1C(=O)Oc2cccnc21 (stereo not drawn)
- outcome: inactive

SMILES: Cn1cnc([N+](=O)[O-])c1Sc1nc(N)nc2nc[nH]c12
- EC50: > 200 µM
- IC50: 3.39 µM

SMILES: COc1ccc(N=Cc2c(O)ccc3c2oc2cc(Cl)c(O)c(Cl)c23)cc1
- EC50: > 200 µM
- IC50: 2.95 µM

SMILES: CCN(CC)CCN(C)c1ccc(/C=C/c2ccnc3ccccc23)cc1
- outcome: inactive

SMILES: COc1ccc(-c2cc(=O)c3c(OC)c(OC)c(OC)c(OC)c3o2)c(OC)c1
- EC50: > 200 µM
- IC50: 20.4 µM

SMILES: COc1cc2c(c(OC)c1OC)C(=O)[C@@H]1[C@H]2N1C(N)=O
- EC50: > 200 µM
- IC50: 4.17 µM

SMILES: Cc1nc2cc(C)[nH]c(=O)n2n1
- EC50: > 1510 µM
- IC50: > 1510 µM

SMILES: C=CCN(CC=C)CC(C(C)=O)C(c1ccccc1)c1c(O)c2ccccc2oc1=O (stereo not drawn)
- EC50: > 1.15 µM
- IC50: > 1.15 µM

SMILES: CC(C)(C)c1cc(N=O)cc(C(C)(C)C)c1O
- EC50: > 200 µM
- IC50: 18.6 µM

SMILES: Cc1ccccc1-c1nc2c(N)nc(N)nc2nc1N
- outcome: inactive

SMILES: COc1ccc(OC)c(NC(=O)C(=O)Nn2c(=S)[nH]c3ccccc3c2=O)c1
- EC50: > 631 µM
- IC50: 372 µM

SMILES: O=c1oc2ccccc2c(O)c1/C=N/C(=S)Nc1ccccc1
- EC50: > 200 µM
- IC50: 51.3 µM

SMILES: COC(=O)C(=O)C(C(=O)C(=O)Nc1cccc(C(C)=O)c1)c1nc2ccc([N+](=O)[O-])cc2[nH]c1=O (stereo not drawn)
- EC50: > 64.6 µM
- IC50: > 64.6 µM

SMILES: CCC(C)C(N)CO (stereo not drawn)
- EC50: > 200 µM
- IC50: > 200 µM

SMILES: COC1OC(CO)C(NC2=N[C@@H]3[C@H](O2)[C@@H](O)[C@H](O)[C@]3(O)CO)C(O)C1O (stereo partly drawn)
- EC50: > 50.1 µM
- IC50: > 50.1 µM

SMILES: Cc1ccc2c(c1)N=Cc1ccccc1O2
- EC50: > 174 µM
- IC50: 10.7 µM

SMILES: CCCS(=N)(=O)CCC(N)C(=O)O (stereo not drawn)
- EC50: > 200 µM
- IC50: > 200 µM

SMILES: CN(C)c1ccc(/C(Br)=C2\OC(=O)c3ccccc32)cc1
- EC50: > 200 µM
- IC50: 112 µM

SMILES: CN(C)c1ccc(/C=C/c2cc[n+](C)c3ccccc23)cc1
- EC50: > 200 µM
- IC50: 0.501 µM

SMILES: COc1ccc2c(-c3ccc(O)cc3)c(Oc3ccccc3)c(=O)oc2c1
- outcome: inactive

SMILES: COc1ccc(OC)c(NC(=O)Nc2nccs2)c1
- EC50: > 200 µM
- IC50: > 200 µM

SMILES: CC(=O)NC1CC(C(C)(C)NC(C)=O)CC=C1C (stereo not drawn)
- EC50: > 269 µM
- IC50: > 269 µM

SMILES: N=C1SC23CCCN2C(=O)C2(CCCN2C3=O)S1
- EC50: > 891 µM
- IC50: 174 µM

SMILES: Cc1c(C)n(-c2ccccc2)c2nc(S(C)=O)nc(S(C)=O)c12 (stereo not drawn)
- EC50: > 20 µM
- IC50: 1.35 µM

SMILES: COc1ccc(N)c(N2C(=O)c3ccccc3C2=O)c1
- EC50: > 200 µM
- IC50: > 200 µM

SMILES: CCSCN(C)c1nc(N(C)C)nc(N(C)C)n1
- EC50: > 200 µM
- IC50: 8.51 µM

SMILES: CC1(C)C(=O)C(C(Cl)(Cl)Cl)=C(Cl)C(=O)C1(Cl)Cl
- EC50: > 200 µM
- IC50: 25.7 µM

SMILES: COC(=O)C1Cc2c(n(C)c3ccccc23)C(c2ccccc2)N1 (stereo not drawn)
- outcome: inactive

SMILES: Cc1cn(C2CC(N=[N+]=[N-])C(COC(=O)[C@@]3(O)CC[C@H]4[C@@H]5CCC6=CC(=O)CC[C@]6(C)[C@H]5C(O)C[C@@]43C)O2)c(=O)[nH]c1=O (stereo partly drawn)
- EC50: 26.9 µM
- IC50: 158 µM

SMILES: CCOC(=O)c1nc2cc(C(F)(F)F)ccc2nc1Nc1ccc(C(=O)OC)s1
- EC50: > 50.1 µM
- IC50: 30.9 µM

SMILES: CC(C)CC(NC(=O)C(Cc1ccccc1)NC(=O)[C@H]1CC[C@H](NC(=O)C(N)Cc2ccc(O)cc2)C1)C(N)=O (stereo partly drawn)
- outcome: inactive

SMILES: COc1cc(/C=C/C=C2\CC(C)C/C(=C\C=C\c3ccc(O)c(OC)c3)C2=O)ccc1O (stereo not drawn)
- EC50: > 200 µM
- IC50: 1.41 µM

SMILES: COc1ccc2c(c1)C1OCCNC1CC2 (stereo not drawn)
- EC50: > 200 µM
- IC50: > 200 µM

SMILES: CCOC(=O)C(Cc1c[nH]c2ccc(N)cc12)(NC(C)=O)C(=O)OCC
- EC50: > 200 µM
- IC50: > 200 µM

SMILES: O=C1OC(c2ccccc2)=N/C1=C\c1ccccc1O
- EC50: > 26.9 µM
- IC50: > 26.9 µM

SMILES: CCOC(=O)C(C(=O)OCC)C(NC(=O)Nc1cc(C(F)(F)F)ccc1OC)(C(F)(F)F)C(F)(F)F
- outcome: inactive

SMILES: CCn1c(SCC(=O)NNC(=S)NC)nc2ccccc2c1=O
- EC50: > 200 µM
- IC50: > 200 µM

SMILES: COC(=O)C1=C(O)C(C(=O)OC)[C@@]2(O)[C@@H](C(=O)OC)CC[C@@H]1[C@@H]2C(=O)OC (stereo partly drawn)
- EC50: > 200 µM
- IC50: 38.9 µM

SMILES: Cc1ccc(C(=O)O/N=C2/CCC/C2=C\c2ccccc2)cc1
- outcome: inactive

SMILES: CCCCC1=NNC(=O)C1
- EC50: > 200 µM
- IC50: > 200 µM

SMILES: Cn1cc(B(O)O)c(=O)[nH]c1=O
- EC50: > 200 µM
- IC50: > 200 µM

SMILES: O=C1NC(=O)C(C(=O)C(=O)Nc2ccc(Cl)cc2Cl)C(=O)N1
- EC50: > 275 µM
- IC50: > 275 µM

SMILES: Cc1csc2nc(-c3ccccc3)c(/C=N/NC(=O)CN(C)C)n12
- outcome: inactive

SMILES: OC(C#CCN1CCCC1)(c1ccccc1)c1ccc(F)cc1.[C-]#[O+].[C-]#[O+].[C-]#[O+].[C-]#[O+].[C-]#[O+].[C-]#[O+].[Co].[Co] (stereo not drawn)
- EC50: > 200 µM
- IC50: 7.41 µM

SMILES: CC(=O)Nc1ccc(C(=O)N2N=C(C)/C(=C/c3cccc([N+](=O)[O-])c3)C2=O)cc1
- EC50: > 47.9 µM
- IC50: > 47.9 µM

SMILES: c1cc2nnc1SCCSCCSCCSc1ccc(nn1)SCCSCCSCCS2
- EC50: > 200 µM
- IC50: > 200 µM

SMILES: O=c1cc(-c2ccccc2)oc2cc(OCCCOc3ccc4c(=O)cc(-c5ccccc5)oc4c3)ccc12
- EC50: > 3.89 µM
- IC50: > 3.89 µM

SMILES: O=C(O)c1ccccc1C(c1cc(Br)c(O)c(Br)c1)c1cc(Br)c(O)c(Br)c1
- outcome: inactive

SMILES: COc1ccc2nc3c4ccccc4scc-3c2c1
- EC50: > 200 µM
- IC50: 0.295 µM

SMILES: Cn1c[n+](C2OC(CO)C(O)C2O)c2nc([O-])[nH]c(=O)c21 (stereo not drawn)
- EC50: > 17.4 µM
- IC50: 9.77 µM
